Results reported in PMC11277489, “Novel Piperazine Derivatives of Vindoline as Anticancer Agents” (International Journal of Molecular Sciences, 2024).
Like-named read-outs stand apart in the source and are kept apart here.

Legend:
Format in all cases: cell-based
786–0 = experiment: NCI60 five-dose screen, Renal Cancer; conditions: Homo sapiens; 786–0, Renal Cancer; five-dose screen; read-out: GI50
DU-145 = experiment: NCI60 five-dose screen, Prostate Cancer; conditions: Homo sapiens; DU-145, Prostate Cancer; five-dose screen; read-out: GI50
TK-10 = experiment: NCI60 five-dose screen, Renal Cancer; conditions: Homo sapiens; TK-10, Renal Cancer; five-dose screen; read-out: GI50
HCC-2998 = experiment: NCI60 five-dose screen, Colon Cancer; conditions: Homo sapiens; HCC-2998, Colon Cancer; five-dose screen; read-out: GI50
MDA-MB-468 = experiment: NCI60 five-dose screen, Breast Cancer; conditions: Homo sapiens; MDA-MB-468, Breast Cancer; five-dose screen; read-out: GI50
OVCAR-8 = experiment: NCI60 five-dose screen, Ovarian Cancer; conditions: Homo sapiens; OVCAR-8, Ovarian Cancer; five-dose screen; read-out: GI50
M14 = experiment: NCI60 five-dose screen, Melanoma; conditions: Homo sapiens; M14, Melanoma; five-dose screen; read-out: GI50
HT29 = experiment: NCI60 five-dose screen, Colon Cancer; conditions: Homo sapiens, HT-29; HT29, Colon Cancer; five-dose screen; read-out: GI50
MOLT-4 = experiment: NCI60 five-dose screen, Leukemia; conditions: Homo sapiens; MOLT-4, Leukemia; five-dose screen; read-out: GI50
MDA-MB231ATCC = experiment: NCI60 five-dose screen, Breast Cancer; conditions: Homo sapiens, MDA-MB-231; MDA-MB231ATCC, Breast Cancer; five-dose screen; read-out: GI50
RXF 393 = experiment: NCI60 five-dose screen, Renal Cancer; conditions: Homo sapiens, RXF 393, Renal Cancer
SNB-19 = experiment: NCI60 five-dose screen, CNS Cancer; conditions: Homo sapiens; SNB-19, CNS Cancer; five-dose screen; read-out: GI50
MALME-3M = experiment: NCI60 five-dose screen, Melanoma; conditions: Homo sapiens; MALME-3M, Melanoma; five-dose screen; read-out: GI50
OVCAR-5 = experiment: NCI60 five-dose screen, Ovarian Cancer; conditions: Homo sapiens; OVCAR-5, Ovarian Cancer; five-dose screen; read-out: GI50
RPMI-8226 = experiment: NCI60 five-dose screen, Leukemia; conditions: Homo sapiens; RPMI-8226, Leukemia; five-dose screen; read-out: GI50
SK-MEL-28 = experiment: NCI60 five-dose screen, Melanoma; conditions: Homo sapiens; SK-MEL-28, Melanoma; five-dose screen; read-out: GI50
[1] = test system: 60 human tumor cell lines (NCI60); experiment: NCI60 five-dose screen, whole panel and sub-panel means; conditions: read-out: GI50 Mean
KM12 = experiment: NCI60 five-dose screen, Colon Cancer; conditions: Homo sapiens; KM12, Colon Cancer; five-dose screen; read-out: GI50
SR = experiment: NCI60 five-dose screen, Leukemia; conditions: Homo sapiens, Leukemia, five-dose screen, read-out: GI50
NCI-H322M = experiment: NCI60 five-dose screen, Non-small Cell Lung Cancer; conditions: Homo sapiens, Non-small Cell Lung Cancer, five-dose screen, read-out: GI50
COLO 205 = experiment: NCI60 five-dose screen, Colon Cancer; conditions: Homo sapiens; COLO 205, Colon Cancer; five-dose screen; read-out: GI50
UACC-62 = experiment: NCI60 five-dose screen, Melanoma; conditions: Homo sapiens; UACC-62, Melanoma; five-dose screen; read-out: GI50
CAKI-1 = experiment: NCI60 five-dose screen, Renal Cancer; conditions: Homo sapiens; CAKI-1, Renal Cancer; five-dose screen; read-out: GI50
UO-31 = experiment: NCI60 five-dose screen, Renal Cancer; conditions: Homo sapiens; UO-31, Renal Cancer; five-dose screen; read-out: GI50
IGROV1 = experiment: NCI60 five-dose screen, Ovarian Cancer; conditions: Homo sapiens, IGROV-1; IGROV1, Ovarian Cancer; five-dose screen; read-out: GI50
SF-295 = experiment: NCI60 five-dose screen, CNS Cancer; conditions: Homo sapiens; SF-295, CNS Cancer; five-dose screen; read-out: GI50
HS 578T = experiment: NCI60 five-dose screen, Breast Cancer; conditions: Homo sapiens; HS 578T, Breast Cancer; five-dose screen; read-out: GI50
SK-OV-3 = experiment: NCI60 five-dose screen, Ovarian Cancer; conditions: Homo sapiens; SK-OV-3, Ovarian Cancer; five-dose screen; read-out: GI50
EKVX = experiment: NCI60 five-dose screen, Non-small Cell Lung Cancer; conditions: Homo sapiens, Non-small Cell Lung Cancer, five-dose screen, read-out: GI50
HCT-116 = experiment: NCI60 five-dose screen, Colon Cancer; conditions: Homo sapiens; HCT-116, Colon Cancer; five-dose screen; read-out: GI50
HOP-92 = experiment: NCI60 five-dose screen, Non-small Cell Lung Cancer; conditions: Homo sapiens; HOP-92, Non-small Cell Lung Cancer; five-dose screen; read-out: GI50
MDA-MB-435 = experiment: NCI60 five-dose screen, Melanoma; conditions: Homo sapiens; MDA-MB-435, Melanoma; five-dose screen; read-out: GI50
MCF7 = experiment: NCI60 five-dose screen, Breast Cancer; conditions: Homo sapiens; MCF7, Breast Cancer; five-dose screen; read-out: GI50
CCRF-CEM = experiment: NCI60 five-dose screen, Leukemia; conditions: Homo sapiens, Leukemia, five-dose screen, read-out: GI50
SN12C = experiment: NCI60 five-dose screen, Renal Cancer; conditions: Homo sapiens, Renal Cancer, five-dose screen, read-out: GI50
[2] = Homo sapiens, 60 cell, mean over all 60 cell lines
[3] = Homo sapiens, mean over Breast Cancer panel
[4] = Homo sapiens, mean over CNS Cancer panel
[5] = Homo sapiens, mean over Colon Cancer panel
[6] = Homo sapiens, mean over Leukemia panel
[7] = Homo sapiens, mean over Melanoma panel
[8] = Homo sapiens, mean over Non-small Cell Lung Cancer panel
[9] = Homo sapiens, mean over Ovarian Cancer panel
[10] = Homo sapiens, mean over Prostate Cancer panel
[11] = Homo sapiens, mean over Renal Cancer panel

## CC[C@]12C=CCN3CC[C@@]4(c5ccc(OC)cc5N(C)[C@H]4[C@@](O)(C(=O)OC)[C@@H]1OC(=O)CCCN1CCN(Cc4ccc(F)cc4)CC1)[C@@H]32 [Compound 24]
786–0
  GI50: 6.31 µM
DU-145
  GI50: 10.5 µM
TK-10
  GI50: 4.9 µM
HCC-2998
  GI50: 2.19 µM
MDA-MB-468
  GI50: 1.74 µM
OVCAR-8
  GI50: 14.5 µM
M14
  GI50: 5.5 µM
HT29
  GI50: 3.8 µM
MOLT-4
  GI50: 1.74 µM
MDA-MB231ATCC
  GI50: 2.82 µM
RXF 393
  GI50: 1 µM
SNB-19
  GI50: 11.5 µM
MALME-3M
  GI50: 2.29 µM
OVCAR-5
  GI50: 13.8 µM
RPMI-8226
  GI50: 4.17 µM
SK-MEL-28
  GI50: 4.68 µM
[1]; [2]
  GI50: 6.84 µM
[1]; [3]
  GI50: 4.25 µM
[1]; [4]
  GI50: 8.08 µM
[1]; [5]
  GI50: 6.09 µM
[1]; [6]
  GI50: 3.19 µM
[1]; [7]
  GI50: 5.92 µM
[1]; [8]
  GI50: 9.83 µM
[1]; [9]
  GI50: 10.1 µM
[1]; [10]
  GI50: 7.32 µM
[1]; [11]
  GI50: 5.58 µM
KM12
  GI50: 10.5 µM
SR
  GI50: 3.47 µM
NCI-H322M
  GI50: 8.32 µM
COLO 205
  GI50: 1.95 µM
UACC-62
  GI50: 11.5 µM
CAKI-1
  GI50: 2.24 µM
UO-31
  GI50: 3.09 µM
IGROV1
  GI50: 2.51 µM
SF-295
  GI50: 12.6 µM
HS 578T
  GI50: 4.07 µM
SK-OV-3
  GI50: 12 µM
EKVX
  GI50: 12 µM
HCT-116
  GI50: 5.62 µM
HOP-92
  GI50: 1.66 µM
MDA-MB-435
  GI50: 5.5 µM
MCF7
  GI50: 3.98 µM
CCRF-CEM
  GI50: 4.07 µM
SN12C
  GI50: 8.32 µM

## CC[C@]12C=CCN3CC[C@@]4(c5ccc(OC)cc5N(C)[C@H]4[C@@](O)(C(=O)OC)[C@@H]1OC(=O)CCC(=O)N1CCN(c4ccc(C(F)(F)F)cc4)CC1)[C@@H]32 [Compound 28]
786–0
  GI50: 5.01 µM
DU-145
  GI50: 5.25 µM
TK-10
  GI50: 4.07 µM
HCC-2998
  GI50: 2.4 µM
MDA-MB-468
  GI50: 1.86 µM
OVCAR-8
  GI50: 3.72 µM
M14
  GI50: 2.4 µM
HT29
  GI50: 2.57 µM
MOLT-4
  GI50: 1.17 µM
MDA-MB231ATCC
  GI50: 4.17 µM
RXF 393
  GI50: 2.29 µM
SNB-19
  GI50: 4.37 µM
MALME-3M
  GI50: 5.37 µM
OVCAR-5
  GI50: 5.25 µM
RPMI-8226
  GI50: 2.57 µM
SK-MEL-28
  GI50: 5.01 µM
[1]; [2]
  GI50: < 4 µM
[1]; [3]
  GI50: 3.44 µM
[1]; [4]
  GI50: 3.69 µM
[1]; [5]
  GI50: 3.16 µM
[1]; [6]
  GI50: 1.81 µM
[1]; [7]
  GI50: 3.63 µM
[1]; [8]
  GI50: 4.23 µM
[1]; [9]
  GI50: 3.92 µM
[1]; [10]
  GI50: 3.85 µM
[1]; [11]
  GI50: 3.67 µM
[1]; mean over all 60 cell lines
  GI50: 3.55 µM
KM12
  GI50: 4.79 µM
SR
  GI50: 2.29 µM
NCI-H322M
  GI50: 10 µM
COLO 205
  GI50: 1.91 µM
UACC-62
  GI50: 2.88 µM
CAKI-1
  GI50: 2 µM
UO-31
  GI50: 2.29 µM
IGROV1
  GI50: 3.31 µM
SF-295
  GI50: 3.16 µM
HS 578T
  GI50: 4.79 µM
SK-OV-3
  GI50: 3.89 µM
EKVX
  GI50: 3.63 µM
HCT-116
  GI50: 3.31 µM
HOP-92
  GI50: 2.09 µM
MDA-MB-435
  GI50: 3.89 µM
MCF7
  GI50: 2.95 µM
CCRF-CEM
  GI50: 1.66 µM
SN12C
  GI50: 4.17 µM
